The results in this text go back to BindingDB's records for doi:10.1046/j.1471-4159.1998.70052147.x (F. Hoffmann-La Roche, 1998).

Each structure is given as a SMILES string. pKi: −log10 of the molar value. Structures can show the parent of a compound that is named as a salt.

The assay concerns the target Glutamate receptor ionotropic, NMDA 1 (Rattus norvegicus, UniProt P35439).

With `OC(CN1CCC(Cc2ccc(F)cc2)CC1)c1ccc(Cl)cc1` (stereo unspecified), the pKi (in general, the Ki on a negative log10 scale, so that one unit is a factor of ten) was 6.52.
As to `C[C@@H](CN1CCC(Cc2ccccc2)CC1)[C@@H](O)c1ccc(O)cc1`, the pKi is 8.22.
Next, `C[C@@H]([C@@H](O)c1ccc(O)cc1)N1CCC(O)(c2ccccc2)CC1` [1-[(1S,2S)-2-Hydroxy-2-(4-hydroxy-phenyl)-1-methyl-ethyl]-4-phenyl-piperidin-4-ol]: 8.10.
Next, `NCCCNCCCCNCCCN` [N,N''-bis(3-azanylpropyl)butane-1,4-diamine;hydrochloride]: 5.70; `COc1cc2c(cc1O)C(CCc1ccc(Cl)cc1)N(C)CC2` (stereo unspecified) [Ro 04-5595]: 7.70; `NCCCCNCCCN` [spermidine]: below 5.00.
